Source: patent US20020028953A1, “Process for preparing 6-(4-chlorophenyl)-2,2-dimethyl-7-phenyl-2,3-dihydro-1H-pyrrolizin-5-yl-acetic acid” (Merckle GmbH, priority 2000, published 2002)
Read-outs that look alike come from different tables or passages of the source.

Legend:
[1] = molecular target: cyclooxygenase (CO) and lipoxygenase (LO); experiment: inhibitory action on the enzymes cyclooxygenase (CO) and lipoxygenase (LO); assay type: biochemical
analgesic action = details: result in words
[2] = stability of the solid form on drying, storage and aging; assay type: physicochemical

CC1(C)Cc2c(-c3ccccc3)c(-c3ccc(Cl)cc3)c(CC(=O)O)n2C1 [polymorph A, 6-(4-chlorophenyl)-2,2-dimethyl-7-phenyl-2,3-dihydro-1H-pyrrolizin-5-ylacetic Acid]
IC50LO/IC50CO ([1]; ratio of IC50 lipoxygenase to IC50 cyclooxygenase): ~1 | cyclooxygenase and/or lipoxygenase inhibitor ([1]; result in words): potent | analgesic action (analgesic action): strong | chemical stability / oxidative decomposition ([2]; listed as Polymorph A): high chemical stability | stability on drying and storage ([2]; solvates release solvent at room temperature): stable on drying and storage

CC1(C)Cc2c(-c3ccccc3)c(-c3ccc(Cl)cc3)c(CC(=O)O)n2C1 [amorphous ML 3000]
chemical stability / oxidative decomposition [2]: relatively severe oxidative decomposition
